Measured values taken from ChEMBL document CHEMBL1201862, “PubChem BioAssay data set” (2004).
Active and inactive are the calls of the source.

What was measured:
Caspase-3 = target: T1, Caspase-3 (Homo sapiens, UniProt P42574); format: functional;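 further: Dose-response selectivity test against caspase-3 for candidate inhibitors of sentrin-specific proteases (SENPs)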
T1 sequence (P42574 whole entry): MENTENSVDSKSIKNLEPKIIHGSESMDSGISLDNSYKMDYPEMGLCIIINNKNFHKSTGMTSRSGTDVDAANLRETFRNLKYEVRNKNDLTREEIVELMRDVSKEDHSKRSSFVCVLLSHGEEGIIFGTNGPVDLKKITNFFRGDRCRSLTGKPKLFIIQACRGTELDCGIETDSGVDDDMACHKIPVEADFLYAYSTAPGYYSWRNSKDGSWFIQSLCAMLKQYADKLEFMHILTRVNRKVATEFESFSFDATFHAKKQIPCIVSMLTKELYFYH

[1] = target: T2, Sentrin-specific protease 8 (Homo sapiens, UniProt Q96LD8); format: functional;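 further: luminescence read-out of SENP8 inhibition, dose-response confirmation following an ultra-high-throughput screen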
T2 sequence (Q96LD8 whole entry): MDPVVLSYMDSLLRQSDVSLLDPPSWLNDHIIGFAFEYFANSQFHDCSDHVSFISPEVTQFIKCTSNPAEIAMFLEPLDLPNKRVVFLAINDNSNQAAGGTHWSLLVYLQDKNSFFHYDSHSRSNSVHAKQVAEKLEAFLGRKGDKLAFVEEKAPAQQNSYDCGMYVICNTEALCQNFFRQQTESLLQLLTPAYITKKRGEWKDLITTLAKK

[2] = target: T3, Sentrin-specific protease 7 (Homo sapiens, UniProt Q9BQF6); format: functional;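 further: Luminescence-based dose-response confirmation of ultra-high-throughput screening hits, measuring inhibition of SENP7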
T3 sequence (Q9BQF6 whole entry): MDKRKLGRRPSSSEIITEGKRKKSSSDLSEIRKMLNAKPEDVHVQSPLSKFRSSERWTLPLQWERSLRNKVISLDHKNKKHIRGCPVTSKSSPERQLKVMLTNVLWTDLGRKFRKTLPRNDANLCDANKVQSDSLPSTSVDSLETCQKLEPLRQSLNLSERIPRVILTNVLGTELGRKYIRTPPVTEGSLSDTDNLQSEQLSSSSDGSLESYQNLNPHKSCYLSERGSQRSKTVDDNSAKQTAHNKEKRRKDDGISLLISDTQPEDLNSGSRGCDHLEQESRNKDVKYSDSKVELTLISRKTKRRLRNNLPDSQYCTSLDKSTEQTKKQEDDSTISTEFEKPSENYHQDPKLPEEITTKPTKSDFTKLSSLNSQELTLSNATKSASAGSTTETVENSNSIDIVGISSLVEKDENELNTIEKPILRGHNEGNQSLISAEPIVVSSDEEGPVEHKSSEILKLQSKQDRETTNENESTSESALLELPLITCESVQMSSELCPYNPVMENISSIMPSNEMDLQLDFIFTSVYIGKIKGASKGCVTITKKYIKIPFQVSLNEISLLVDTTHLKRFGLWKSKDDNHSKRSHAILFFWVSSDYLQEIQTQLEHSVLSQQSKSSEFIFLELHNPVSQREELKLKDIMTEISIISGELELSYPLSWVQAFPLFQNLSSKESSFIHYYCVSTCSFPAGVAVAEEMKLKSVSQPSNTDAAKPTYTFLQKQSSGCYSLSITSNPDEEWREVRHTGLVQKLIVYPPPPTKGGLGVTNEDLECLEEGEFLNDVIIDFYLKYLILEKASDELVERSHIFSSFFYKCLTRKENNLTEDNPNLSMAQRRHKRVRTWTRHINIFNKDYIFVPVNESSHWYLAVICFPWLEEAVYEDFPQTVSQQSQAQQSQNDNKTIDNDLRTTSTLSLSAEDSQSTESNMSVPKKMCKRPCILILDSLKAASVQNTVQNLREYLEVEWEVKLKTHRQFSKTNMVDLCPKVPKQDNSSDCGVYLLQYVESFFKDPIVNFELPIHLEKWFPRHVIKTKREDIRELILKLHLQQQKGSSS

[3] = target: T4, Sentrin-specific protease 6 (Homo sapiens, UniProt Q9GZR1); format: functional;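 further: Luminescence-based dose-response confirmatory assay of SENP6 inhibition, following up an ultra-high-throughput screen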
T4 sequence (Q9GZR1 whole entry): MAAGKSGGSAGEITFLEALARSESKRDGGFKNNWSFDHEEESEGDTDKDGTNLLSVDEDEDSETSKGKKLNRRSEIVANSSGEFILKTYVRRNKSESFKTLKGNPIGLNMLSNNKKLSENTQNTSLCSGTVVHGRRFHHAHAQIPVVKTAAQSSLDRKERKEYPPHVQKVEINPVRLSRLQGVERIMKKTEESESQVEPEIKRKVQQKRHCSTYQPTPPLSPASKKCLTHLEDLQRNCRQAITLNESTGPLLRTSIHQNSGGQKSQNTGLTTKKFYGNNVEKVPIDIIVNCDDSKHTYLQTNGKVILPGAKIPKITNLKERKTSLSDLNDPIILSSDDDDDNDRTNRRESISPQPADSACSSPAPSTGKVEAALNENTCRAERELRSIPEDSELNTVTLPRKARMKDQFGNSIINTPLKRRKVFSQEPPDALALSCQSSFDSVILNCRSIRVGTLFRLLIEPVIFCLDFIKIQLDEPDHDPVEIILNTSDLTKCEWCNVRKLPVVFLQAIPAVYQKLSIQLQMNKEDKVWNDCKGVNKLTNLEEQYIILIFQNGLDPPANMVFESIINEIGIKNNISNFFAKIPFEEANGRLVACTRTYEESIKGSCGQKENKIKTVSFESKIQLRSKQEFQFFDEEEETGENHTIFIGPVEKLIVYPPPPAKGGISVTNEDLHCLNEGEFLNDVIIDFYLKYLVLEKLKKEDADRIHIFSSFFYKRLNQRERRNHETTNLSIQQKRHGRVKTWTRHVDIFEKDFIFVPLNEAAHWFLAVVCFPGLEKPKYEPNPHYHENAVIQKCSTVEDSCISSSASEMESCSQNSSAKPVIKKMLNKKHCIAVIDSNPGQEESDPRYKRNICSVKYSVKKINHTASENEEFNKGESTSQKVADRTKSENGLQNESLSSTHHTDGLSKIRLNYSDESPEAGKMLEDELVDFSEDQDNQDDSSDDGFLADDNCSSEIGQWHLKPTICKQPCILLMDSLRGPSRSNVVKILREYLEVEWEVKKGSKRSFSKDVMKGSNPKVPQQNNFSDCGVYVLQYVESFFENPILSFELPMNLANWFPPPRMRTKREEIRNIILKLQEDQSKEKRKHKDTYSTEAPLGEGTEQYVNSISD

[4] = target: T5, Adenosylmethionine-8-amino-7-oxononanoate aminotransferase (Mycobacterium tuberculosis, UniProt P9WQ81); assay: Mycobacterium tuberculosis BioA enzyme inhibitor Measured in Biochemical System Using Plate Reader - 2163-02_Inhibitor_Dose_CherryPick_Activity.; format: functional, Mycobacterium tuberculosis UT205
T5 sequence (P9WQ81 whole entry): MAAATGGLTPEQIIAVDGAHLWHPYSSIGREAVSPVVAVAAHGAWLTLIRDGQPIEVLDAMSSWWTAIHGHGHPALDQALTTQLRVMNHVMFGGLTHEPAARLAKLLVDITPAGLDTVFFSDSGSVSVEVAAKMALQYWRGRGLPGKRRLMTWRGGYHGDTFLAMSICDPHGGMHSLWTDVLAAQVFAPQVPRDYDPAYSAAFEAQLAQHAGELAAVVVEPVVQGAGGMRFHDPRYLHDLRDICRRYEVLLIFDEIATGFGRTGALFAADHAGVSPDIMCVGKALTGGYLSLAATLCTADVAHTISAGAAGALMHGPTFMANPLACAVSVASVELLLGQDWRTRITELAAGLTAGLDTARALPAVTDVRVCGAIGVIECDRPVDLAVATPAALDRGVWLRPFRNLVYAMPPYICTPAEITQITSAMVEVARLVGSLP

H4 = assay: Luminescence Cell-Based Dose Response HTS to Identify Activators of 5'UTR Stem-Loop Driven Prion Protein mRNA Translation in H4 Neuroglioblastoma Cells. [Related pubchem assays: 1829 (Project Summary), 1814 (Primary HTS)]; format: functional; details: Homo sapiens
[5] = DRD fibroblast viability loss – cell-based, non-viral oncogenic, luminescence, dose response (AID 1934); format: functional; details: Homo sapiens
BJ [6] = assay: cells; format: functional, cell-based; details: Homo sapiens
BJ [7] = assay: BJ-TERT-LT-ST fibroblast viability loss – cell-based, RAS-independent, luminescence, dose response (AID 1935); format: functional; details: Homo sapiens;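 further: BJ fibroblasts immortalized with TERT plus LT and ST oncogenes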
[8] = Luminescence Cell-Based Dose Response HTS to Identify Activators of Luciferase Translation or Activity in H4 […] Cells. [Related pubchem assays: 1829 (Project Summary), 1814 (Primary HTS)]; format: functional
BJ [9] = assay: BJ-TERT fibroblast viability loss – cell-based, RAS-independent, luminescence, dose response (AID 1933); format: functional; details: Homo sapiens
[10] = target: Heat shock protein HSP 90-alpha (Homo sapiens, UniProt P07900); format: functional, organism-based
H9c2 = assay: cells; format: functional, cell-based; details: Rattus norvegicus, H9c2, Myocardium;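 further: confirmatory concentration-response retest of ultra-high-throughput screening hits for modulation of myocardial damage; cell death induced by hydrogen peroxide oxidative stress; compound pretreatment for 60 min then peroxide exposure for 2 h; potency is for protecting the cells against peroxide damage rather than for killing them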
[11] = blockers of bursicon-stimulated LGR2 cAMP reporter – cell-based, HEK293, CRE-luciferase reporter, cherry pick, set 2, dose response (AID 743343); format: functional;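 further: transfected cells were stimulated with diluted bursicon conditioned medium after compound addition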
[12] = blockade of melanocortin 4 receptor signaling – cell-based, plate reader, cherry pick, counter-screen for LGR2 antagonist project, dose response (AID 743444); format: functional;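 further: transfected HEK 293 cells stimulated with alpha-MSH peptide; potency of inhibitors of the alpha-MSH evoked signal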
[13] = viability loss in HEK293 cells – cell-based, plate reader, cherry-picked samples, cytotoxicity control, dose response (AID 743446); format: functional
[14] = A549 cell cytotoxicity, dose response, cytotoxicity control, plate reader, cherry-pick, antagonist series (AID 743412); format: functional, cell-based
P388/ADR = assay: cells; format: functional; details: Mus musculus
SN12K1 = assay: cells; format: functional; details: Homo sapiens
P388 = assay: cells; format: functional; details: Mus musculus

C/C(=N\OC(=O)c1ccc(Cl)cc1)c1nccs1
IC50 (Caspase-3): 15.1 µM (active) | IC50 [1]: 19.2 µM (active) | IC50 [2]: 2.63 µM (active) | IC50 [3]: 11.7 µM (active)

CC(=O)c1ccc(N2CCN(C(=O)c3ccc4c(c3)OCO4)CC2)cc1
AC50 [4]: 0.155 µM (active)

O=C(CSc1nc2c(c(=O)n1-c1ccc(Cl)cc1)SCC2)N1CCOCC1
AC50 [4]: 6.81 µM (active)

CC1Cc2nc(SCC(=O)N3CCOCC3)n(-c3ccccc3)c(=O)c2S1 (stereo not given)
AC50 [4]: 5.31 µM (active)

CCOC(=O)Nc1ccc2nc(N3CCCCCC3)sc2c1
EC50 (H4): > 120 µM (not active) | EC50 [5]: 4.7 µM (inconclusive) | EC50 (BJ [6]): 111 µM (active) | IC50 (Caspase-3): 31.1 µM (active) | IC50 [1]: 9.44 µM (active) | EC50 (BJ [7]): 55.5 µM (inconclusive) | IC50 [2]: 10.5 µM (active) | EC50 [8]: 0.153 µM (active) | EC50 (BJ [9]): 10.3 µM (inconclusive) | IC50 [3]: 33.1 µM (active)

O=C(Nc1cccc(Cl)c1)Nc1ccccc1C(=O)NCc1ccco1
IC50 (Caspase-3): 21.4 µM (active) | IC50 [1]: > 100 µM (inactive) | IC50 [2]: 4.05 µM (active) | IC50 [3]: 4.44 µM (active)

O=C(/C=C/c1ccccc1)n1cnnc1SC/C=C/c1ccccc1
IC50 (Caspase-3): 37.3 µM (active) | IC50 [1]: 25.6 µM (active) | IC50 [2]: 8.8 µM (active) | IC50 [3]: 15.2 µM (active)

Nn1c(SC/C=C/c2ccccc2)nnc1-c1cccnc1
AC50 [4]: 0.311 µM (active)

O=C1CC(N2CCCCCC2)C(=O)N1c1ccc2c(c1)OCO2 (stereo not given)
AC50 [10]: 4.79 µM (active)

CCOc1ccc(-n2cc(-c3ccccc3)c3c(N4CCOCC4)ncnc32)cc1
IC50 (H9c2): > 79 µM (inactive) | AC50 [11]: 56.7 µM (active) | AC50 [12]: 47.3 µM (active) | AC50 [13]: > 52 µM (inactive) | AC50 [14]: 36.1 µM (active)

CCc1cc(-c2ccc3c(c2)COc2c4ccccc4nn2-3)on1
AC50 [11]: 22.7 µM (active) | AC50 [12]: 40.4 µM (active) | AC50 [13]: 47.8 µM (active) | AC50 [14]: > 52 µM (inactive)

COc1cc2c(c(OC)c1OC)C(=O)NCCC2
GI50 (P388/ADR): > 100 µM (inactive) | GI50 (SN12K1): > 100 µM (inactive) | GI50 (P388): > 100 µM (inactive)

O=C1CCC23CC(C=CC=C12)n1c(=O)n(-c2ccccc2)c(=O)n13 (stereo not given)
GI50 (P388/ADR): 31 µM (inactive) | GI50 (SN12K1): > 100 µM (inactive) | GI50 (P388): 49.9 µM (inactive)

COc1ccc(-c2nc3ccc([N+](=O)[O-])cc3c(=O)[nH]2)cc1
GI50 (P388/ADR): > 100 µM (inactive) | GI50 (SN12K1): 26 µM (inactive) | GI50 (P388): > 100 µM (inactive)

C=C1C(C)C2C(Cc3ccccc3)NC(=O)C23C(OC(C)=O)/C=C/C(C)(O)CC(C)C/C=C/C3C1O (stereo not given)
GI50 (P388/ADR): 2.58 µM (inactive) | GI50 (SN12K1): 0.0294 µM (active) | GI50 (P388): 0.608 µM (active)

N#C[C@H](OC1OC(COC2OC(CO)C(O)C(O)C2O)C(O)C(O)C1O)c1ccccc1 (stereo not given in full)
GI50 (P388/ADR): 170 µM (inactive) | GI50 (SN12K1): > 250 µM (inactive) | GI50 (P388): 232 µM (inactive)

CCNC(=O)[C@H]1[C@H](CO)[C@H]2Cn3c(ccc(-c4ccccc4)c3=O)[C@H]2N1C(=O)Cc1cccnc1
AC50 [4]: 16.3 µM (active)

CNC(=O)ON(C(C)=O)C(=O)NC [CARACEMIDE]
GI50 (P388/ADR): 21.4 µM (inactive) | GI50 (SN12K1): 50.9 µM (inactive) | GI50 (P388): 16.4 µM (inactive)
